ChEMBL document CHEMBL1127372, “The discovery and structure-activity relationships of 1,2,3,6-tetrahydro-4-phenyl-1-[(arylcyclohexenyl)alkyl]pyridines. Dopamine autoreceptor agonists and potential antipsychotic agents” (J Med Chem, 1994)
Active and inactive are the calls of the source. The calls are words filed in the database; no cut-off is given here.

Columns and labels:
[1] = system: Mus musculus; assay: Tested for the inhibition of locomotor activity in mice intraperitoneally; value ranges from 0.14-0.9 mg/Kg; format: functional; details: ip
[2] = species: Rattus norvegicus; assay: animal or person; details: ip
[3] = system: Saimiri sciureus (squirrel monkey); assay: Tested for inhibition of conditioned avoidance in squirrel monkeys; stim indicates stimulation (increase in response rate) at 0.156 and 0.312 mgkg sc
[4] = system: Rattus norvegicus; assay: Compound was tested for the decrease of DA neuron firing rate in rats at 0.25 mg/Kg ip dose; format: functional; design: scale not given: the % may be the effect or the level left
[5] = system: Rattus norvegicus; assay: Tested for reversal of DOPA accumulation in rat striatum after administration of compound at 10 mg/Kg dose for 60 min and GBL 750 mg/Kg ip; value ranges from 0.14-0.59; format: functional
[6] = molecular target: T1, D(2) dopamine receptor (Rattus norvegicus, UniProt P61169); assay: In vitro inhibition of [3H]spiperone binding to Dopamine D2 receptor in rat striatum.; format: tissue-based
T1 sequence (P61169 whole entry): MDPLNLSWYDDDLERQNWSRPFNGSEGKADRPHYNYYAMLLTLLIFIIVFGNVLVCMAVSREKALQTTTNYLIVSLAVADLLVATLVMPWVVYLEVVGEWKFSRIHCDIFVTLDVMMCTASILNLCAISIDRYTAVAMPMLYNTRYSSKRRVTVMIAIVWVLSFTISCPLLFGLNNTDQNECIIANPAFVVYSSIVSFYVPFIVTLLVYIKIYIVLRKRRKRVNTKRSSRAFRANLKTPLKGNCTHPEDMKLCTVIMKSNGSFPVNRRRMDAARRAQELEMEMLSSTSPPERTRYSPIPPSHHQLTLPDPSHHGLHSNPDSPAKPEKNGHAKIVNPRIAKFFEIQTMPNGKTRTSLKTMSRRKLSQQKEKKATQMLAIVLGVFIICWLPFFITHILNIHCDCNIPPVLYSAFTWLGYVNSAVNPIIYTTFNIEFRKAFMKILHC

[7] = species: Rattus norvegicus; assay: Tested for inhibition of rat exploratory locomotory activity (LMA); format: functional
[8] = system: Mus musculus; assay: Tested for inhibition of mouse exploratory locomotory activity (LMA); value ranges from 0.8-1.6 mg/Kg; format: functional
[9] = system: Rattus norvegicus; assay: Effect on striatal DOPA synthesis at 10 mg/kg dose after GBL intraperitoneal dose of 750 mg/kg in rat corpus striatum; format: functional
[10] = system: Rattus norvegicus; assay: Tested for inhibition of rat exploratory locomotory activity (LMA); value ranges from 12.5-24.7 mg/Kg; format: functional
[11] = system: Rattus norvegicus; assay: Tested for the inhibition of locomotor activity in rats orally; value ranges from 0.21-0.3 mg/Kg; details: po
[12] = Tested for inhibition of conditioned avoidance in squirrel monkeys; value ranges from 0.4-0.6 mg/Kg; details: Saimiri
[13] = species: Mus musculus; assay: animal or person; details: ip
[14] = molecular target: T1, D(2) dopamine receptor; assay: Tested for binding affinity towards rat striatal D2 receptor using [3H]NPA as radioligand
[15] = system: Rattus norvegicus; assay: Tested for reversal of DOPA accumulation in rat striatum after administration of compound at 10 mg/Kg dose for 60 min and GBL 750 mg/Kg ip; value ranges from 2.05-4.46; format: functional
[16] = molecular target: D(2) dopamine receptor (Homo sapiens, UniProt P14416)
D(2) dopamine receptor (Homo sapiens, UniProt P14416), sequence (P14416 whole entry): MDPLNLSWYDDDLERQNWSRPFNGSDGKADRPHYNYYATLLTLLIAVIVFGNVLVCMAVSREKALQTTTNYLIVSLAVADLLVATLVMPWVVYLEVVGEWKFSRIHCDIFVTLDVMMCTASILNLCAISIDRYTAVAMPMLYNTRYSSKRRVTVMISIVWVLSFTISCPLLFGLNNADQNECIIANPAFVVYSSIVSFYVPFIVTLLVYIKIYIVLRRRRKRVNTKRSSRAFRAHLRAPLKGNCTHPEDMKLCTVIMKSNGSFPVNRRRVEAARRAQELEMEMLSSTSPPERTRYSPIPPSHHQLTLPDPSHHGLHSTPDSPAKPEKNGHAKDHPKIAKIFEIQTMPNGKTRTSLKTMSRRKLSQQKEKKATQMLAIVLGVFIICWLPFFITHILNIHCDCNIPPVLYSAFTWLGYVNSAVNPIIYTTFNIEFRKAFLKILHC
Description: Tested for binding affinity towards human D2L receptor using [3H]spiperone as radioligand

[17] = Tested for inhibition of conditioned avoidance in squirrel monkeys; value ranges from 0.4-0.7 mg/Kg; format: functional
[18] = molecular target: D(1A) dopamine receptor (Rattus norvegicus, UniProt P18901); assay: Tested for binding affinity towards rat striatal dopamine receptor D1 using [3H]-SCH- 23390 as radioligand
D(1A) dopamine receptor, sequence (P18901 whole entry): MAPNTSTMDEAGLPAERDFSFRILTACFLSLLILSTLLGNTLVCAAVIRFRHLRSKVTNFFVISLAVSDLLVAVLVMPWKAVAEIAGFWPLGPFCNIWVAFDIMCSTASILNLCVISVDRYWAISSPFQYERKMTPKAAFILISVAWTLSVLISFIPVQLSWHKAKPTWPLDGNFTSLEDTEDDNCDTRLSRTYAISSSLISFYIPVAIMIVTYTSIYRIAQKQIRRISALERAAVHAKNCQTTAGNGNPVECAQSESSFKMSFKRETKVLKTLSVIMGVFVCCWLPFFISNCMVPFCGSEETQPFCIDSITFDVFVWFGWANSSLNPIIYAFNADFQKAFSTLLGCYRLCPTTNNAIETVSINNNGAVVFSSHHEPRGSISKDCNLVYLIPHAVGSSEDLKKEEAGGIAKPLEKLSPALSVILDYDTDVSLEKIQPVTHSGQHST

[19] = molecular target: T1, D(2) dopamine receptor
Description: Tested for binding affinity towards rat striatal D2 receptor using [3H]spiperone as radioligand

[20] = system: Rattus norvegicus; assay: Tested for inhibition of rat exploratory locomotory activity (LMA); value ranges from […]-[…] mg/Kg; format: functional
[21] = system: Rattus norvegicus; assay: Tested for reversal of DOPA accumulation in rat mesolimbic after administration of compound at 10 mg/Kg dose for 60 min and GBL 750 mg/Kg ip; value ranges from 0.19-0.47; format: functional
[22] = system: Rattus norvegicus; assay: Tested for the inhibition of locomotor activity in rats intraperitoneally; value ranges from […]-[…] mg/Kg; format: functional; details: ip
[23] = molecular target: D(3) dopamine receptor (Homo sapiens, UniProt P35462)
D(3) dopamine receptor, sequence (P35462 whole entry): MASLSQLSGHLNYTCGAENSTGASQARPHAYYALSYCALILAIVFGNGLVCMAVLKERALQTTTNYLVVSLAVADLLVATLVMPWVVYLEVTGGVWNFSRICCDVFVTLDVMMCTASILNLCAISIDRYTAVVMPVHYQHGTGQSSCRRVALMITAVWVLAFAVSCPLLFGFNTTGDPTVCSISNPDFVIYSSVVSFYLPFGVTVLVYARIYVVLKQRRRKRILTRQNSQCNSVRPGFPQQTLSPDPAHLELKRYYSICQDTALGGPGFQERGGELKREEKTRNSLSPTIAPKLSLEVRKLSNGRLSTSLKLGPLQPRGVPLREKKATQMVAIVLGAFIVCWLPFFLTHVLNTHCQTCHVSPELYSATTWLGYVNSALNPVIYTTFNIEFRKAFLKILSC
Description: Tested for binding affinity towards human D3 receptor using [3H]spiperone as radioligand

[24] = molecular target: T2, D(4) dopamine receptor (Homo sapiens, UniProt P21917); assay: Tested for binding affinity towards human Dopamine receptor D4.2 using [3H]spiperone as radioligand
T2 sequence (P21917 whole entry): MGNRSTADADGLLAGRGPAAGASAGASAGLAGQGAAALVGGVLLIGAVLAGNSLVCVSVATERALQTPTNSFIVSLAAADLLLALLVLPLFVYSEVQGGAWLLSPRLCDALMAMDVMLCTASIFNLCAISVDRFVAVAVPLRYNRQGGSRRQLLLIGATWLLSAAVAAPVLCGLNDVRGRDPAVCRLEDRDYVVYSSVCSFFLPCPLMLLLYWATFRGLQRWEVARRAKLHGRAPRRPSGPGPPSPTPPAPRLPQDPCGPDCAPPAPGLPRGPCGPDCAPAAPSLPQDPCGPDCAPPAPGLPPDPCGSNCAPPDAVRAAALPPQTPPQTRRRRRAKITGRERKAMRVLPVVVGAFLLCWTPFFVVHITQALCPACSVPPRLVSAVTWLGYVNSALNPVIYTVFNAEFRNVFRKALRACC

[25] = system: Rattus norvegicus; assay: Compound was tested for the decrease of DA neuron firing rate in rats at 2.5 mg/Kg ip dose; format: functional
[26] = system: Mus musculus; assay: Tested for the inhibition of locomotor activity in mice intraperitoneally; value ranges from 0.9-1.8 mg/Kg; format: functional; details: ip
[27] = system: Rattus norvegicus; assay: Tested for inhibition of rat exploratory locomotory activity (LMA); value ranges from […]-[…] mg/Kg; value ranges from […]-[…] mg/Kg; format: functional
[28] = species: Mus musculus; assay: Tested for inhibition of mouse exploratory locomotory activity (LMA); format: functional
[29] = system: Mus musculus; assay: Tested for inhibition of mouse exploratory locomotory activity (LMA); value ranges from […]-[…] mg/Kg; format: functional
[30] = system: Mus musculus; assay: Tested for inhibition of mouse exploratory locomotory activity (LMA); value ranges from 9.2-16 mg/Kg; format: functional
[31] = system: Rattus norvegicus; assay: Tested for inhibition of rat exploratory locomotory activity (LMA); value ranges from 3.2-10.4 mg/Kg; format: functional
[32] = system: Mus musculus; assay: Tested for inhibition of mouse explanatory locomotory activity; value ranges from […]-[…] mg/Kg; format: functional

In the case of `CN1CCc2cccc3c2[C@H]1Cc1ccc(O)c(O)c1-3` [APOMORPHINE], the ED50 [1] is reported as 0.36 mg/kg, the ED50 [2] is reported as 0.03 mg/kg and the ED50 [3] is reported as “inactive”. It also gave an Activity [4] of 100% and an ED50 [5] of 0.28 mg/kg.

Work on `FC(F)(F)c1ccc(C2=CCC[C@@H](CN3CC=C(c4ccccc4)CC3)C2)cc1` yielded an IC50 [6] of 2550 nM.

In the case of `Clc1ccc(C2=CCC[C@@H](CN3CC=C(c4ccccc4)CC3)C2)cc1`, the ED50 [7] is reported as 19.9 mg/kg.

With `C1=C(c2ccccc2)CCN(CC2CCC=C(c3ccccc3)C2)C1` (configuration not stated) the ED50 [8] was 1.1 mg/kg, the Effect [9] was -86% and the IC50 [6] was 112 nM.

With `Fc1ccc(C2=CCC[C@@H](CN3CC=C(c4ccccc4)CC3)C2)cc1` the ED50 [10] was 17.5 mg/kg, the Effect [9] was -74% and the IC50 [6] was 76 nM.

Compound `C1=C(c2ccccc2)CC(CN2CCN(c3ncccn3)CC2)CC1` (configuration not stated) has an IC50 [6] of 354 nM.

Compound `O=C(CCCN1CCC(O)(c2ccc(Cl)cc2)CC1)c1ccc(F)cc1` [HALOPERIDOL] has an ED50 [11] of 0.25 mg/kg, an ED50 [12] of 0.5 mg/kg and an ED50 [13] of 0.3 mg/kg.

`C1=C(c2ccccc2)CCN(C[C@@H]2CCC=C(c3ccccc3)C2)C1` [CI-1007] showed a Ki [14] of 3.3 nM, an Effect [15] of 3% and an Effect [9] of -66%. It also gave an IC50 [6] of 53 nM, a Ki [16] of 25.5 nM and an ED50 [17] of 0.6 mg/kg. It also gave a Ki [18] greater than 10000 nM, a Ki [19] of 53 nM and an ED50 [20] of 2.9 mg/kg. The Effect [21] was 0.3%, the ED50 [22] was 2.9 mg/kg and the Ki [23] was 16.6 nM. For the same compound, the Ki [24] was 90.9 nM, the Activity [25] was 99 and the ED50 [26] was 1.3 mg/kg.

`C1=C(c2ccccc2)CC(CN2CCN(c3ccccc3)CC2)CC1` (configuration not stated) gave an Effect [9] of -7.5% and an IC50 [6] of 424 nM.

`C1=C(c2ccccc2)CCN(C[C@H]2CCC=C(c3ccccc3)C2)C1` gave an ED50 [27] of 3.8 mg/kg, an Effect [9] of 50% and an IC50 [6] of 113 nM.

Compound `C1=C(c2ccccc2)CCN(CC2CCCC=C2c2ccccc2)C1` (configuration not stated) has an IC50 [6] of 3940 nM and an ED50 [28] greater than 30 mg/kg.

With `C1=C(c2ccccc2)CCCC1CN1CC=C(c2ccccc2)CC1` (configuration not stated) the Effect [9] was -34% and the IC50 [6] was 420 nM.

`C1=C(c2ccccc2)CC(CN2CC=C(c3cccs3)CC2)CC1` (configuration not stated) showed an IC50 [6] of 170 nM.

`C1=C(c2ccccc2)CCN(CCC2CCC=C(c3ccccc3)C2)C1` (configuration not stated) showed an Effect [9] of -49%.

With `C1=C(c2ccccc2)CC(CN2CCN(c3ccccn3)CC2)CC1` (configuration not stated) the Effect [9] was -61%, the IC50 [6] was 141 nM and the ED50 [29] was 0.8 mg/kg.

For `C1=C(c2ccccc2)CCC(CN2CC=C(c3ccccc3)CC2)C1` (configuration not stated), the Effect [9] was -32%, the IC50 [6] was 1000 nM and the ED50 [30] was 12.1 mg/kg.

Compound `Cc1ccc(C2=CCC[C@@H](CN3CC=C(c4ccccc4)CC3)C2)cc1` has an Effect [9] of -42%, an IC50 [6] of 328 nM and an ED50 [31] of 5.8 mg/kg.

`COc1ccc(C2=CCC[C@@H](CN3CC=C(c4ccccc4)CC3)C2)cc1` showed an Effect [9] of -47%, an IC50 [6] of 100 nM and an ED50 [32] of 5.6 mg/kg.

Compound `C1=C(c2ccccc2)CCN(C2CCC=C(c3ccccc3)C2)C1` (configuration not stated) has an IC50 [6] of 9210 nM and an ED50 [28] of roughly 30 mg/kg.
